Reference: ChEMBL document CHEMBL1201862, “PubChem BioAssay data set” (2004)
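96-well plates; 48 h exposure; 5 concentrations. Endpoints by linear interpolation between flanking doses. Not reached: highest tested concentration assigned. At the GI50, growth is halved.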 The source made the active and inactive calls. Cut-off read from the data, not from the text of the source: active = GI50 up to about 1.1 µM and inactive = higher.

Tests used:
Assay in all cases: DTP human tumour cell line panel, 48 h
[1] = tested on: KM12
[2] = tested on: SK-MEL-5
[3] = tested on: SK-OV-3
[4] = tested on: MDA-N
[5] = tested on: TK-10
[6] = tested on: NCI-H23
[7] = tested on: RXF 393
[8] = tested on: A549
[9] = tested on: LOX IMVI
[10] = tested on: OVCAR-8
[11] = tested on: SF-295
[12] = tested on: MDA-MB-435
[13] = tested on: OVCAR-4
[14] = tested on: EKVX
[15] = tested on: HT-29
[16] = tested on: A498
[17] = tested on: NCI-H522
[18] = tested on: Hs-578T
[19] = tested on: IGROV-1

Measured: GI50

Oc1cccc2cc(Cl)cnc12
inactive: [1] 14.8 µM | [2] 8.41 µM | [3] 50.4 µM | [4] 31.9 µM | [5] 39.5 µM | [6] 6.12 µM | [7] 12.3 µM | [8] 7.08 µM | [9] 5.04 µM | [10] 3.7 µM | [11] 3.39 µM | [12] 14.7 µM | [13] 3.38 µM | [14] 4.88 µM | [15] 28.2 µM | [16] 23.8 µM | [17] 2.75 µM | [18] 6.93 µM | [19] 7.16 µM

COC(=O)c1ccc(CCc2cc(O)ccc2O)cc1
active: [17] 0.706 µM
inactive: [1] 5.52 µM | [2] 10.2 µM | [3] 38 µM | [4] 5.94 µM | [5] 22.4 µM | [6] 13.6 µM | [7] 7.89 µM | [8] 26.8 µM | [9] 6.12 µM | [10] 2.85 µM | [11] 21.3 µM | [12] 6.08 µM | [13] 10.8 µM | [14] 13.3 µM | [15] 28.4 µM | [16] 37.6 µM | [18] 16.1 µM | [19] 6.49 µM

COc1cc(C(=O)O)c([N+](=O)[O-])c(OC)c1OC
inactive: [1] > 100 µM | [2] > 100 µM | [3] > 100 µM | [4] > 100 µM | [5] > 100 µM | [6] > 100 µM | [7] > 100 µM | [8] > 100 µM | [9] > 100 µM | [10] > 100 µM | [11] > 100 µM | [12] > 100 µM | [13] > 100 µM | [14] > 100 µM | [15] > 100 µM | [16] > 100 µM | [17] > 100 µM | [18] > 100 µM | [19] > 100 µM

CC(=C(C(=O)O)C(=O)O)c1cc(-c2cccs2)cc(-c2ccc(Cl)cc2)c1O
inactive: [1] 9.04 µM | [2] 19.3 µM | [3] 33.7 µM | [4] 16.3 µM | [5] 16.2 µM | [6] 17.3 µM | [7] 14 µM | [8] 20.7 µM | [9] 13.2 µM | [10] 19.2 µM | [11] 17.9 µM | [12] 15.6 µM | [13] 26.7 µM | [14] 17.3 µM | [15] 17.3 µM | [16] 16 µM | [17] 14.3 µM | [18] > 42.7 µM | [19] 15.2 µM

COC(C)(C)C(O)C(O)C[C@H](C)C1CC=C2C1(C)CCC1[C@@]3(C)CCC(OC(C)=O)C(C)(C)C3CC(OC3OC(COC(C)=O)C(O)C(O)C3O)[C@@]21C (stereo partly specified)
inactive: [1] 2.92 µM | [2] 2.21 µM | [3] > 10 µM | [4] 3.01 µM | [5] 4.53 µM | [6] 4.85 µM | [7] 3.85 µM | [8] 4.13 µM | [9] 2.32 µM | [10] 3.72 µM | [11] 3.03 µM | [12] 3.24 µM | [13] 5.86 µM | [14] 4.79 µM | [15] 3.41 µM | [16] 3.31 µM | [17] 2.78 µM | [18] 4.37 µM | [19] 2.78 µM

CC(=O)/C(=C(/Br)I)c1ccccc1
active: [17] 0.442 µM
inactive: [1] 14.8 µM | [2] 7.71 µM | [3] 28.6 µM | [4] 3.45 µM | [5] 21 µM | [6] 4.13 µM | [7] 3.36 µM | [8] 20 µM | [9] 9.84 µM | [10] 11.6 µM | [11] 15.5 µM | [12] 3.01 µM | [13] 12.5 µM | [14] 12.6 µM | [15] 4.06 µM | [16] 14.5 µM | [18] 30.7 µM | [19] 10.9 µM

C=C(C)[C@@]1(O)CCCC[C@@H]1CC(Sc1ccccc1)Sc1ccccc1
inactive: [1] 14.2 µM | [2] 15.7 µM | [3] 19.6 µM | [4] 20 µM | [5] 15.5 µM | [6] 14.2 µM | [7] 13.4 µM | [8] 13.9 µM | [9] 14.6 µM | [10] 19.5 µM | [11] 16.6 µM | [12] 16.2 µM | [13] 13.6 µM | [14] 13.4 µM | [15] 18.2 µM | [16] 29.9 µM | [17] 11.7 µM | [18] 15.7 µM | [19] 16.4 µM

CCOC(=O)CCc1ccc(NC(=O)/C=C/c2ccc([N+](=O)[O-])o2)cc1
inactive: [1] 1.56 µM | [2] 1.49 µM | [3] 9.12 µM | [5] 1.48 µM | [8] 3.72 µM | [11] 3.48 µM | [13] 3.94 µM | [14] > 100 µM | [16] 3.14 µM | [18] 3.16 µM | [19] 3.5 µM
active: [4] 0.807 µM | [6] 0.863 µM | [7] 0.794 µM | [9] 0.356 µM | [10] 0.681 µM | [12] 0.316 µM | [15] 0.925 µM | [17] 0.287 µM

CCOC(=O)C1=C(C)N(c2ccc(Cl)cc2)C2(O)C=CC(=O)C3C(=O)N(c4ccccc4)C(=O)C132 (stereo unspecified)
inactive: [1] 1.69 µM | [2] 1.6 µM | [3] 2.4 µM | [4] 2.35 µM | [5] 1.8 µM | [6] 1.93 µM | [7] 1.76 µM | [8] 2.83 µM | [9] 1.36 µM | [10] 2.12 µM | [11] 2.19 µM | [12] 2.23 µM | [13] 1.54 µM | [14] 1.91 µM | [15] 1.82 µM | [16] 1.56 µM | [18] 2.39 µM | [19] 1.54 µM
active: [17] 1.1 µM

Cc1ccc(/C(C#N)=C/c2cccc([N+](=O)[O-])c2)cc1
inactive: [1] > 100 µM | [2] > 100 µM | [3] 61.9 µM | [4] > 100 µM | [5] 92.5 µM | [6] > 100 µM | [7] 19.3 µM | [8] > 100 µM | [9] > 100 µM | [10] 59.2 µM | [11] 24.4 µM | [12] > 100 µM | [13] 57.8 µM | [14] 29.5 µM | [15] > 100 µM | [16] 59.4 µM | [17] > 100 µM | [18] 27.4 µM | [19] 80.5 µM

COc1cccc(Nc2n[nH]c(NS(=O)(=O)c3cc(C)c(Cl)cc3S)n2)c1
inactive: [1] > 100 µM | [2] > 100 µM | [3] > 100 µM | [4] > 100 µM | [5] > 100 µM | [6] > 100 µM | [7] > 100 µM | [8] > 100 µM | [9] > 100 µM | [10] > 100 µM | [11] > 100 µM | [12] > 100 µM | [13] > 100 µM | [14] > 100 µM | [15] > 100 µM | [16] > 100 µM | [17] > 100 µM | [18] > 100 µM | [19] > 100 µM

Cc1cn(C2CC(N/C(=N/C#N)NCC3OC(n4cnc5c(N)ncnc54)CC3O)C(CO)O2)c(=O)[nH]c1=O (stereo unspecified)
inactive: [1] > 100 µM | [2] > 100 µM | [3] > 100 µM | [4] > 100 µM | [5] > 100 µM | [6] > 100 µM | [7] > 100 µM | [8] > 100 µM | [9] > 100 µM | [10] > 100 µM | [11] > 100 µM | [12] > 100 µM | [13] > 100 µM | [14] > 100 µM | [15] > 100 µM | [16] > 100 µM | [17] > 100 µM | [18] > 100 µM | [19] > 100 µM

CC1=NN(C(=O)CC(=O)N(C(=O)c2ccccc2)c2ccc(Cl)cc2)C(=O)C1/N=N/c1ccc([N+](=O)[O-])cc1 (stereo unspecified)
inactive: [1] > 10 µM | [2] > 10 µM | [3] > 10 µM | [4] > 10 µM | [5] > 10 µM | [6] > 10 µM | [7] > 10 µM | [8] > 10 µM | [9] > 10 µM | [10] > 10 µM | [11] > 10 µM | [12] > 10 µM | [13] > 10 µM | [14] > 10 µM | [15] > 10 µM | [16] > 10 µM | [17] > 10 µM | [18] > 10 µM | [19] > 10 µM

CCOC(=O)c1[nH]c(-c2[nH]c(-c3[nH]c(-c4[nH]c(C(=O)OCC)c(C)c4C(=O)OCC)c(C(=O)OCC)c3C)c(C)c2C(=O)OCC)c(C(=O)OCC)c1C
inactive: [1] > 100 µM | [2] 50.4 µM | [3] > 100 µM | [4] > 100 µM | [5] > 100 µM | [6] > 100 µM | [7] > 100 µM | [8] > 100 µM | [9] > 100 µM | [10] > 100 µM | [11] > 100 µM | [12] > 100 µM | [13] > 100 µM | [14] > 100 µM | [15] > 100 µM | [16] > 100 µM | [17] > 100 µM | [18] > 100 µM | [19] > 100 µM
